Patent US5861269A, “Methods for removing interferences due to endogenous dehydrogenases in enzyme assays” (Dade Behring Marburg GmbH, priority 1996, dated 1999)

How the values were obtained:
[1] = tested on: endogenous dehydrogenases; experiment: Emit Ethyl Alcohol Assay with inhibitor, serum samples falsely elevated by endogenous dehydrogenases; assay type: biochemical; conditions: inhibitor in Reagent 1
Procedure: (§1) (Part No. 9K219). The assays were performed on the Cobas Mira-S analyzer (Roche Diagnostics Inc., Nutley, N.J.) according to the manufacturer's instructions using the protocol provided by Syva Company. Briefly, the Emit® Ethyl Alcohol Assay consists of two reagents, Reagent 1 and Reagent 2. Reagent 1 contains Tris buffer, stabilizers and preservatives. Reagent 2 contains alcohol dehydrogenase, nicotinamide adenine dinucleotide (NAD^+), bulking agents, stabilizers, surfactants and preservatives. Reagent 2 is shipped in dry form and is reconstituted according to the manufacturer's instructions. To perform the assay, Reagent 1 and Reagent 2 %ere added to the sample. Following mixing and incubation, the change in absorbance at 340 nm was monitored. The reaction is linear, and calibration was achieved by single point calibration using a 100 mg/dL (0.10%) calibrator, supplied by Syva Company. The calculation of results was not required. The instrument prints the quantitative result.
Results reported under the column GC refer to confirmatory results obtained using gas chromatography.
Agaric acid was dissolved in Emit® Ethyl Alcohol Reagent 1 by stirring with heat to a concentration of 25 mM. […] The solution was cooled to room temperature. The pH of the solution was measured and adjusted to the pH of the Emit® Ethyl Alcohol Reagent 1 (pH 9.0) with a small volume of 10N NaOH. […] These discrepant samples were analyzed using the Emit® Ethyl Alcohol Assay side by side with the assay containing agaric acid.

malate dehydrogenase = conditions: Bacchi et al., J. Bacteriol. 98(1), 23-28 (1969); cited from earlier work
[2] = tested on: endogenous dehydrogenases; experiment: Emit Ethyl Alcohol Assay with inhibitor, whole blood samples; assay type: biochemical; conditions: whole blood ethanol samples
Procedure: as §1, with “The ability of inhibitors to prevent false positive results with samples containing endogenous dehydrogenases was determined by employing the Emit® Ethyl Alcohol Assay available from Syva Company, San Jose, Calif. (Part” for “(Part”
In the following examples, results reported under the column Current Emit® refer to results observed using the Emit® Ethyl Alcohol assay in the absence of inhibitor. […]

[3] = tested on: α-glycerophosphate dehydrogenase; conditions: Bacchi et al., J. Bacteriol. 98(1), 23-28 (1969); cited from earlier work

| Structure (SMILES) | Effect on elevated (false-positive) ethanol results of the Emit Ethyl Alcohol Assay [1] | Inhibition of malate dehydrogenase (malate dehydrogenase) | Accuracy of the Emit Ethyl Alcohol Assay versus current Emit product [2] | Inhibition of α-glycerophosphate dehydrogenase [3] |
| --- | --- | --- | --- | --- |
| CCCCCCCCCCCCCCCCC(C(=O)O)C(O)(CC(=O)O)C(=O)O (centres unmarked) [Agaric Acid, Agaric acid] | eliminated | highly inhibitory | improved accuracy | highly inhibitory |
| CCCCCCCCCCOS(=O)(=O)[O-].[Na+] [Sodium Decyl Sulfate, sodium decyl sulfate] | eliminated | – | – | – |
| CCCCCCCCCCCCOS(=O)(=O)[O-].[Na+] [SDS, sodium dodecyl sulfate] | eliminated | – | – | – |
| CCCC/C=C\CCCCCCCC(=O)O [Myristoleic Acid, myristoleic acid] | eliminated | – | – | – |
| CCCCCCCCCCCC(=O)O [Lauric Acid, Lauric acid] | eliminated | – | – | – |
